Results taken from the NIST ThermoML archive (doi:10.1021/acs.jced.5b00789).
Where “and” joins values, the source holds several entries; their conditions need not be identical. Equal entries are not always repeated. ± gives the expanded uncertainty stated by the source.

Details: Liquid

Which mass density (343.2 K, 101.33 kPa) does the source give for `CCn1c2ccccc2c2ccccc21` [9-ethylcarbazole] here?
The mass density was 1062.78 ± 6.6 kg/m3 and 1062.93 ± 6.6 kg/m3 and 1063.05 ± 6.6 kg/m3.

And the mass density (353.2 K, 101.33 kPa)?
The mass density was 1055.37 ± 6.4 kg/m3 and 1055.51 ± 6.4 kg/m3 and 1055.63 ± 6.4 kg/m3.

What about the mass density (363.2 K, 101.33 kPa) of the same molecule?
The mass density was 1048.06 ± 6.3 kg/m3 and 1048.2 ± 6.3 kg/m3 and 1048.32 ± 6.3 kg/m3.

And the mass density (373.2 K, 101.33 kPa)?
Its mass density is 1040.99 ± 6.1 kg/m3 and 1041.11 ± 6.1 kg/m3 and 1040.85 ± 6.1 kg/m3.

What does the source list for `CC1CCCCC1` [methylcyclohexane]?
mass density (293.2 K, 101.33 kPa): 769.72 ± 8.2 kg/m3 and 769.91 ± 8.2 kg/m3 and 770.07 ± 8.2 kg/m3; mass density (303.2 K, 101.33 kPa): 761.08 ± 8.4 kg/m3 and 761.27 ± 8.4 kg/m3 and 761.42 ± 8.4 kg/m3; mass density (313.2 K, 101.33 kPa): 752.63 ± 8.6 kg/m3 and 752.82 ± 8.6 kg/m3 and 752.97 ± 8.6 kg/m3; mass density (323.2 K, 101.33 kPa): 744.55 ± 8.8 kg/m3 and 744.71 ± 8.7 kg/m3 and 744.37 ± 8.8 kg/m3; mass density (333.2 K, 101.33 kPa): 736.29 ± 8.9 kg/m3 and 736.47 ± 8.9 kg/m3 and 736.62 ± 8.9 kg/m3; mass density (343.2 K, 101.33 kPa): 728.38 ± 9.1 kg/m3 and 728.56 ± 9.1 kg/m3 and 728.71 ± 9.1 kg/m3; mass density (353.2 K, 101.33 kPa): 720.64 ± 9.3 kg/m3 and 720.82 ± 9.3 kg/m3 and 720.97 ± 9.3 kg/m3; mass density (363.2 K, 101.33 kPa): 713.07 ± 9.4 kg/m3 and 713.24 ± 9.4 kg/m3 and 713.39 ± 9.4 kg/m3; mass density (373.2 K, 101.33 kPa): 705.65 ± 9.6 kg/m3 and 705.82 ± 9.6 kg/m3 and 705.96 ± 9.6 kg/m3

With `Cc1ccccc1` [toluene] as the molecule, how does the mass density (293.2 K) read?
Its mass density is 867.3 ± 6.3 kg/m3 and 867.61 ± 6.3 kg/m3 and 867.8 ± 6.3 kg/m3.

And the mass density (303.2 K)?
The mass density was 855.63 ± 6.5 kg/m3 and 855.94 ± 6.5 kg/m3 and 856.12 ± 6.5 kg/m3.

And the mass density (313.2 K)?
The mass density was 844.27 ± 6.8 kg/m3 and 844.57 ± 6.8 kg/m3 and 844.75 ± 6.8 kg/m3.

And the mass density (323.2 K)?
The mass density was 833.51 ± 7 kg/m3 and 833.68 ± 7 kg/m3 and 833.21 ± 7 kg/m3.

What about the mass density (333.2 K) of the same molecule?
The mass density was 822.43 ± 7.2 kg/m3 and 822.73 ± 7.2 kg/m3 and 822.9 ± 7.2 kg/m3.

What about the mass density (343.2 K) of the same molecule?
The mass density was 811.93 ± 7.4 kg/m3 and 812.22 ± 7.4 kg/m3 and 812.39 ± 7.4 kg/m3.

And the mass density (353.2 K)?
Its mass density is 801.69 ± 7.6 kg/m3 and 801.98 ± 7.6 kg/m3 and 802.15 ± 7.6 kg/m3.

What about the mass density (363.2 K) of the same molecule?
The mass density was 791.71 ± 7.8 kg/m3 and 792 ± 7.8 kg/m3 and 792.16 ± 7.8 kg/m3.

What about the mass density (373.2 K) of the same molecule?
The mass density was 781.97 ± 8 kg/m3 and 782.26 ± 8 kg/m3 and 782.42 ± 8 kg/m3.
